How the values were obtained:
[1] = target: T1, Ectonucleotide pyrophosphatase/phosphodiesterase family member 1 (Homo sapiens) (UniProt P22413); experiment: Inhibition of human recombinant NPP1 expressed in insect SF9 cells using ATP as substrate at 10 uM preincubated with substrate followed by protein addition and subsequent incubation for 30 mins by capillary electrophoresis
T1 sequence (whole entry): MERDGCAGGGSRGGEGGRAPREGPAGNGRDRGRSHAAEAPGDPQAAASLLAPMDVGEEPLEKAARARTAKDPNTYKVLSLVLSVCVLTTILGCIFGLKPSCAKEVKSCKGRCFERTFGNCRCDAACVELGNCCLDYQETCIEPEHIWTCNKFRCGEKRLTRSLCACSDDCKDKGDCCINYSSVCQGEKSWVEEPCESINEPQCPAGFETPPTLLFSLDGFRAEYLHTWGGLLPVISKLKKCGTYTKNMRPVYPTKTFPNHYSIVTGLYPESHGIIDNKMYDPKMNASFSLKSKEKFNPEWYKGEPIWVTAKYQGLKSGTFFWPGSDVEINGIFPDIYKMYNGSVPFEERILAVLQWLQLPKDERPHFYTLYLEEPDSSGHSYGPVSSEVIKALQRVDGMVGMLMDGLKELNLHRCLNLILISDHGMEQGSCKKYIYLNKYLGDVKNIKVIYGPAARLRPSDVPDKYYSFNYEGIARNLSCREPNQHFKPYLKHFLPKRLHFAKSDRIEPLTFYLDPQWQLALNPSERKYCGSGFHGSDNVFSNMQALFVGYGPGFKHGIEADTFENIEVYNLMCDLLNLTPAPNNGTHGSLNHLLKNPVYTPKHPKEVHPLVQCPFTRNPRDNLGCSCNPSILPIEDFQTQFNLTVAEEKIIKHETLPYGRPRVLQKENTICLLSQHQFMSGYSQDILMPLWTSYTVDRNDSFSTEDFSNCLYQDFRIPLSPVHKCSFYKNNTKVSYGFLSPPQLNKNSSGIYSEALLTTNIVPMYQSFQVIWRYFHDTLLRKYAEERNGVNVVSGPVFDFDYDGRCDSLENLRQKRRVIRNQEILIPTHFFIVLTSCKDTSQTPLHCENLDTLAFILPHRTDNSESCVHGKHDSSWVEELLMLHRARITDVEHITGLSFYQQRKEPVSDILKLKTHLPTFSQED

[2] = target: T2, Ectonucleotide pyrophosphatase/phosphodiesterase family member 1 (Homo sapiens, UniProt P22413); experiment: Inhibition of human recombinant NPP1 expressed in insect SF9 cells using ATP as substrate preincubated with substrate followed by protein addition and subsequent incubation for 30 mins by capillary electrophoresis
T2 sequence (P22413 whole entry): T1 sequence (whole entry)

[3] = target: T2, Ectonucleotide pyrophosphatase/phosphodiesterase family member 1; experiment: Competitive inhibition of human NPP1 transfected in HEK293 cells using p-Nph-5'-TMP as substrate preincubated for 3 mins followed by substrate addition measured after 15 mins by Cornish-Bowden plot analysis
[4] = target: T2, Ectonucleotide pyrophosphatase/phosphodiesterase family member 1; experiment: Competitive inhibition of human NPP1 expressed in African green monkey COS7 cells using ATP as substrate after 20 mins by Michaelis-Menten plot analysis; assay type: cell-based, COS-7
[5] = Drug level in MgCl2/CaCl2/CHES buffer treated with (Z)-2-((5-iodofuran-2-yl)methylene)benzo[d]thiazolo[3,2-a]imidazol-3(2H)-one at pH 9 after 24 hrs by LC-MS analysis; assay type: physicochemical; settings: pH 9, 24 h
[6] = Retention time of the compound in MgCl2/CaCl2/CHES buffer at pH 9 by LC-MS analysis; assay type: physicochemical

Row | inhibition [1] [%] | Ki [2] [µM] | Compound | further results
1 | 24 | > 10 | O=c1/c(=C/C=C/c2ccccc2)sc2nc3ccccc3n12 | 
2 | 31 | > 10 | O=c1/c(=C/c2ccccc2)sc2nc3ccccc3n12 | 
3 |  | 1.07 | O=c1/c(=C/c2ccc([N+](=O)[O-])o2)sc2nc3ccccc3n12 | 
4 | 30 | > 10 | O=c1[nH]c2ccccc2cc1/C=c1/sc2nc3ccccc3n2c1=O | 
5 |  | 2.11 | Cc1ccc(/C=c2\sc3nc4ccccc4n3c2=O)o1 | 
6 |  |  | CCN(CC)c1ncnc2c1ncn2[C@@H]1O[C@H](COP(=O)(O)OP(=O)(O)C(Br)(Br)P(=O)(O)O)[C@@H](O)[C@H]1O | Ki [3]: 12 µM
7 |  | 4.21 | CN(C)c1ccc(/C=c2\sc3nc4ccccc4n3c2=O)o1 | 
8 | 11 | > 10 | O=c1/c(=C/c2cccc(Cc3ccccc3)c2)sc2nc3ccccc3n12 | 
9 |  | 8.56 | CC1CCN(c2cc(N3CCC(C)CC3)c([N+](=O)[O-])cc2/C=c2/sc3nc4ccccc4n3c2=O)CC1 | 
10 | 32 | > 10 | O=c1/c(=C/c2ccc(Cl)cc2)sc2nc3ccccc3n12 | 
11 | 24 | > 10 | O=c1/c(=C\c2ccc3ccccc3c2)sc2nc3ccccc3n12 | 
12 | 10 | > 10 | O=c1/c(=C/c2cccc(OCc3ccccc3)c2)sc2nc3ccccc3n12 | 
13 | 10 | > 10 | O=c1/c(=C\c2ccccc2)sc2nc3ccccc3n12 | 
14 |  |  | Nc1c(S(=O)(=O)O)cc(Nc2ccc(Nc3nc(Cl)nc(Nc4cccc(S(=O)(=O)O)c4)n3)c(S(=O)(=O)O)c2)c2c1C(=O)c1ccccc1C2=O [REACTIVE BLUE 2] | Ki [4]: 0.52 µM
15 | 39 | > 10 | O=c1/c(=C/c2ccccn2)sc2nc3ccccc3n12 | 
16 |  | 0.61 | O=c1/c(=C/c2ccc(Br)o2)sc2nc3ccccc3n12 | 
17 |  |  | O=C(/C(O)=C\c1ccc(I)o1)n1c(=S)[nH]c2ccccc21 | Drug metabolism [5]: metabolite_detected; Retention_time [6]: 3.8 min
18 | 13 | > 10 | O=c1/c(=C/c2cccc(Oc3ccccc3)c2)sc2nc3ccccc3n12 | 
19 | 31 | > 10 | O=c1/c(=C/c2ccc(I)cc2)sc2nc3ccccc3n12 | 
20 |  | 0.981 | O=c1/c(=C/c2ccco2)sc2nc3ccccc3n12 | 
21 | 28 | > 10 | Cc1ccc(/C=c2\sc3nc4ccccc4n3c2=O)cc1 | 
22 | 40 | ≥ 10 | O=c1/c(=C/c2ccc(Sc3ccccc3)o2)sc2nc3ccccc3n12 | 
23 | 48 | ≥ 10 | O=c1/c(=C/c2ccc(-c3ccccc3)o2)sc2nc3ccccc3n12 | 
24 | 43 | ≥ 10 | O=c1/c(=C/c2cccs2)sc2nc3ccccc3n12 | 
25 | 21 | > 10 | COc1cc(/C=c2/sc3nc4ccccc4n3c2=O)ccc1OCc1nnn[nH]1 | 
26 | 0 | > 10 | C/C=c1\sc2nc3ccccc3n2c1=O | 
27 |  | 8.91 | O=c1/c(=C/c2ccc(N3CCOCC3)cc2)sc2nc3ccccc3n12 | 
